Measurements taken from article PMC9629851, “Cardiac myosin filaments are directly regulated by calcium” (The Journal of General Physiology, 2022).

What was measured:
[1] = target: T1, β-cardiac full-length myosin (Bos taurus, UniProt Q9BE39); assay: basal ATPase, enzymatically coupled assay on purified myosin; format: biochemical
T1 construct: gene MYH7; full-length myosin in synthetic thick filaments; also HMM and S1-subfragment

[2] = target: T2, Human β-cardiac myosin (2-hep and 25-hep HMM) (Homo sapiens, UniProt P12883); assay: basal ATPase assay of recombinant HMM; format: biochemical
T2 construct: gene MYH7
T2 sequence (P12883 1-855): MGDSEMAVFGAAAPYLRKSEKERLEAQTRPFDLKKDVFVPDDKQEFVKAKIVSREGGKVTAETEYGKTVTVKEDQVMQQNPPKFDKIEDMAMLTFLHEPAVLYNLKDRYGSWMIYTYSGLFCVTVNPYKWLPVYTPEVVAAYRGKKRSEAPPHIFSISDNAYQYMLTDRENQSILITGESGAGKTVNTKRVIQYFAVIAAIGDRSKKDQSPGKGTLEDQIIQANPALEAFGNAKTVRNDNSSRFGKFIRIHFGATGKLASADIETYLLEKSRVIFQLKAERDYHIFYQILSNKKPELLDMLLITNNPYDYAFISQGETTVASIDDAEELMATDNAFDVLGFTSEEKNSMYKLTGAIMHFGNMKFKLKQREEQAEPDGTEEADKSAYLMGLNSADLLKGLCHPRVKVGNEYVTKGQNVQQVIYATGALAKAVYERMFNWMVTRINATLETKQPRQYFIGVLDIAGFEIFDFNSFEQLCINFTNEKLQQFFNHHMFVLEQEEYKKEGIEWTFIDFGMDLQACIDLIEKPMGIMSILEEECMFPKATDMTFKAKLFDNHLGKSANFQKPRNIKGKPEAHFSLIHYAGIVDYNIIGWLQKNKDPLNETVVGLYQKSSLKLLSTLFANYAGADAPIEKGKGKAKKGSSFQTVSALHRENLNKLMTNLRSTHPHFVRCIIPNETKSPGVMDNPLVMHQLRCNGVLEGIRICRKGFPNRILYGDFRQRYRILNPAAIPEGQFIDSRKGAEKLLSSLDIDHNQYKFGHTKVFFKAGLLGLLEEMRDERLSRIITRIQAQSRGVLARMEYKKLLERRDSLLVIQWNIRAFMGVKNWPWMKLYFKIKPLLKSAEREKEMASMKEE

T1 sequence (Q9BE39 whole entry, the tested form may be a part): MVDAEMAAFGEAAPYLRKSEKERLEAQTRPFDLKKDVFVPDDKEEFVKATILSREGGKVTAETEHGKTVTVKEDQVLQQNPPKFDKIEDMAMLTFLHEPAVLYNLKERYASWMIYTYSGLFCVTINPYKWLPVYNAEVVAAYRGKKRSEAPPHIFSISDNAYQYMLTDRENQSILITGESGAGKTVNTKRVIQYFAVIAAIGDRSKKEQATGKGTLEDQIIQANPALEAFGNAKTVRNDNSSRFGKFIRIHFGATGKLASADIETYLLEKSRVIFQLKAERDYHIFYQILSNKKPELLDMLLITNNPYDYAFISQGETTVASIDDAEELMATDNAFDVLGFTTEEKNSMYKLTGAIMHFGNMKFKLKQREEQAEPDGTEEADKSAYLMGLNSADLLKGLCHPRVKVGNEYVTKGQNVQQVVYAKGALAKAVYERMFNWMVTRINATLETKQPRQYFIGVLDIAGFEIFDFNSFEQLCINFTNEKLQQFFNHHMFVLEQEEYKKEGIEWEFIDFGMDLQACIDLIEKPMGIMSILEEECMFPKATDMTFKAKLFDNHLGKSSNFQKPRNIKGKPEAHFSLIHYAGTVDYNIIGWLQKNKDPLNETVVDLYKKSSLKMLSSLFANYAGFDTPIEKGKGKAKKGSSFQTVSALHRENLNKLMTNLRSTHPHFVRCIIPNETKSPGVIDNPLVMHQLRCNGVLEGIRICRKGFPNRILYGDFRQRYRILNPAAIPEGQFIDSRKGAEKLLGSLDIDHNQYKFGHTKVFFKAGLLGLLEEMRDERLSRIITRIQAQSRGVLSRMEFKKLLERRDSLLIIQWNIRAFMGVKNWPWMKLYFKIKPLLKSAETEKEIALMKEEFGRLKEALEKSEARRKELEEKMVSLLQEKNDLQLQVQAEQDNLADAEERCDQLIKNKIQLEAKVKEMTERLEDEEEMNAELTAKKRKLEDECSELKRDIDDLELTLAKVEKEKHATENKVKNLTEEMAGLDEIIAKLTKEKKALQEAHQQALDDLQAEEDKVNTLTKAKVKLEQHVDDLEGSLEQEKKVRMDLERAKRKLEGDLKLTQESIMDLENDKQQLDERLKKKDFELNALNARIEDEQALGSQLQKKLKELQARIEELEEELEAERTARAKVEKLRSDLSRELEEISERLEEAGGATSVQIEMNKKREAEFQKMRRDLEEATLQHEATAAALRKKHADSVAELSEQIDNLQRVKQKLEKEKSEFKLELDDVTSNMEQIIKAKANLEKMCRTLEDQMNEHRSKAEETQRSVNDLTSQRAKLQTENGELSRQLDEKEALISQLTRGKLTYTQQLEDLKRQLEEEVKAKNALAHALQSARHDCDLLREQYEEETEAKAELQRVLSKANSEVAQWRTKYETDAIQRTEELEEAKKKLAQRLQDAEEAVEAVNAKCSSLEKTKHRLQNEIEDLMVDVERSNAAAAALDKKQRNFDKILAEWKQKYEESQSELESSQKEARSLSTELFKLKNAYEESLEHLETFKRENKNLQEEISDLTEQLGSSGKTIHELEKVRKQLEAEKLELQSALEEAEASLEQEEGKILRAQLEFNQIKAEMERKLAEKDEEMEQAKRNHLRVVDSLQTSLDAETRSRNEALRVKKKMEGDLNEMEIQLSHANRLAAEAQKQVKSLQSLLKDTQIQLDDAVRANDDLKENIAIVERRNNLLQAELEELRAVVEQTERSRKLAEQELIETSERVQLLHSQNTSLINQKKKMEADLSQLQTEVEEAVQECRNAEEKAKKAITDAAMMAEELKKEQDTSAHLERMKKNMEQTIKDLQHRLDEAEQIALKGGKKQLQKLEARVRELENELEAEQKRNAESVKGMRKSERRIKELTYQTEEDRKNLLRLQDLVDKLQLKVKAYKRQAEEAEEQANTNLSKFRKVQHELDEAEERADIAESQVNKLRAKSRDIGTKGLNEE

Nc1ncnc2c1ncn2[C@@H]1O[C@H](COP(=O)(O)OP(=O)(O)OP(=O)(O)O)[C@@H](O)[C@H]1O [ATP]
Raw values at pCa 8 [1]: 0.03 ± 0.01 s^−1 | Raw values at pCa 8 [2]: 0.1 ± 0.05 s^−1
